Assay results: publication PMC7438494 (Communications Biology, 2020)
Where “and” joins values, the source holds several entries; their conditions need not be identical. Identical values can stand only once. Like-named read-outs stand apart in the source and are kept apart here.

Target: human ATP synthase (Homo sapiens, UniProt P00846+P05496)
Experiment: biochemical
Type: biochemical
Details: for cyanide sensitive ATP produced, nmol/min/mg / cyanide sensitive ATP produced, pmol/min/mg: 60 min
[1] = BDQ 5e-6 uM, […], frozen human mito, BDQ in DMSO
[2] = BDQ 5e-6 uM, cyanide sensitive, frozen human mito, BDQ in DMSO
[3] = BDQ 5e-5 uM, […], frozen human mito, BDQ in DMSO
[4] = BDQ 5e-5 uM, cyanide sensitive, frozen human mito, BDQ in DMSO
[5] = BDQ 0.0005 uM, […], frozen human mito, BDQ in DMSO
[6] = BDQ 0.0005 uM, cyanide sensitive, frozen human mito, BDQ in DMSO
[7] = BDQ 0.0005 uM, cyanide sensitive, human
[8] = BDQ 0.005 uM, […], frozen human mito, BDQ in DMSO
[9] = BDQ 0.005 uM, cyanide sensitive, frozen human mito, BDQ in DMSO
[10] = BDQ 0.005 uM, cyanide sensitive, human
[11] = BDQ 0.05 uM, cyanide sensitive, human
[12] = BDQ 0.1 uM, […], frozen human mito, BDQ in DMSO
[13] = BDQ 0.1 uM, cyanide sensitive, frozen human mito, BDQ in DMSO
[14] = BDQ 0.1 uM, cyanide sensitive, human
[15] = BDQ 0.2 uM, […], frozen human mito, BDQ in DMSO
[16] = BDQ 0.2 uM, cyanide sensitive, frozen human mito, BDQ in DMSO
[17] = BDQ 0.2 uM, cyanide sensitive, human
[18] = BDQ 0.5 uM, […], frozen human mito, BDQ in DMSO
[19] = BDQ 0.5 uM, cyanide sensitive, frozen human mito, BDQ in DMSO

COc1nc2ccc(Br)cc2cc1[C@@H](c1ccccc1)[C@@](O)(CCN(C)C)c1cccc2ccccc12 [BDQ, Bedaquiline]
ATP synthesis: 7.2 nmol/min/mg
inhibition at 0.85 µM: 46%
% activity, cyanide sensitive [1]: 78.2096%
% inhibition, cyanide sensitive [1]: 21.7904%
ATP produced, nmol/min/mg [1]: 6.85 nmol/min/mg
ATP produced, pmol/min/mg [1]: 6850.84 pmol/min/mg
cyanide sensitive ATP produced, nmol/min/mg [2]: 5.63 nmol/min/mg
cyanide sensitive ATP produced, pmol/min/mg [2]: 5632.76 pmol/min/mg
Cyanide sensitive ATP synthesis (BDQ 5e-6 uM, cyanide sensitive, human): 6.1 nmol/min/mg and 8.3 nmol/min/mg
% activity, cyanide sensitive [3]: 74.3127%
% inhibition, cyanide sensitive [3]: 25.6873%
ATP produced, nmol/min/mg [3]: 6.57 nmol/min/mg
ATP produced, pmol/min/mg [3]: 6570.19 pmol/min/mg
cyanide sensitive ATP produced, nmol/min/mg [4]: 5.35 nmol/min/mg
cyanide sensitive ATP produced, pmol/min/mg [4]: 5352.10 pmol/min/mg
Cyanide sensitive ATP synthesis (BDQ 5e-5 uM, cyanide sensitive, human): 5.6 nmol/min/mg and 8.1 nmol/min/mg
% activity [5]: 84.5005%
% inhibition [5]: 15.4995%
ATP produced, nmol/min/mg [5]: 7.12 nmol/min/mg
ATP produced, pmol/min/mg [5]: 7115.12 pmol/min/mg
activity at 0.0005 µM (BDQ 0.0005 uM, […], frozen human mito, BDQ in DMSO, read-out: % activity): 84.5%
activity at 0.0005 µM (BDQ 0.0005 uM, […], frozen human mito, BDQ in DMSO, read-out: % activity, cyanide sensitive): 81.9%
inhibition at 0.0005 µM (BDQ 0.0005 uM, […], frozen human mito, BDQ in DMSO, read-out: % inhibition): 15.5%
inhibition at 0.0005 µM (BDQ 0.0005 uM, […], frozen human mito, BDQ in DMSO, read-out: % inhibition, cyanide sensitive): 18.1%
cyanide sensitive ATP produced, nmol/min/mg [6]: 5.90 nmol/min/mg
cyanide sensitive ATP produced, pmol/min/mg [6]: 5897.03 pmol/min/mg
Cyanide sensitive ATP synthesis [7]: 7.7 nmol/min/mg and 4.7 nmol/min/mg and 7.8 nmol/min/mg
cyanide sensitive % activity [7]: 71.1%
activity at 0.0005 µM (BDQ 0.0005 uM, cyanide sensitive, human, read-out: cyanide sensitive % activity): 81.5%
inhibition at 0.0005 µM (BDQ 0.0005 uM, cyanide sensitive, human, read-out: cyanide sensitive % inhibition): 18.5%
% activity [8]: 99.3902%
% inhibition [8]: 0.6098%
ATP produced, nmol/min/mg [8]: 8.37 nmol/min/mg
ATP produced, pmol/min/mg [8]: 8368.87 pmol/min/mg
activity at 0.005 µM (BDQ 0.005 uM, […], frozen human mito, BDQ in DMSO, read-out: % activity): 99.4%
activity at 0.005 µM (BDQ 0.005 uM, […], frozen human mito, BDQ in DMSO, read-out: % activity, cyanide sensitive): 99.3%
inhibition at 0.005 µM (BDQ 0.005 uM, […], frozen human mito, BDQ in DMSO, read-out: % inhibition): 0.6%
inhibition at 0.005 µM (BDQ 0.005 uM, […], frozen human mito, BDQ in DMSO, read-out: % inhibition, cyanide sensitive): 0.713%
cyanide sensitive ATP produced, nmol/min/mg [9]: 7.15 nmol/min/mg
cyanide sensitive ATP produced, pmol/min/mg [9]: 7150.78 pmol/min/mg
Cyanide sensitive ATP synthesis [10]: 8.3 nmol/min/mg and 4.6 nmol/min/mg and 7.9 nmol/min/mg
cyanide sensitive % activity [10]: 72.3%
activity at 0.005 µM (BDQ 0.005 uM, cyanide sensitive, human, read-out: cyanide sensitive % activity): 88.5%
Cyanide sensitive ATP synthesis [11]: 6.8 nmol/min/mg and 4.7 nmol/min/mg and 3.8 nmol/min/mg
cyanide sensitive % activity [11]: 71.8% and 64.1% and 43.8%
cyanide sensitive % inhibition [11]: 28.2% and 35.9% and 56.2%
% activity [12]: 65.6953%
% inhibition [12]: 34.3047%
ATP produced, nmol/min/mg [12]: 5.53 nmol/min/mg
ATP produced, pmol/min/mg [12]: 5531.68 pmol/min/mg
activity at 0.1 µM (BDQ 0.1 uM, […], frozen human mito, BDQ in DMSO, read-out: % activity): 65.7%
activity at 0.1 µM (BDQ 0.1 uM, […], frozen human mito, BDQ in DMSO, read-out: % activity, cyanide sensitive): 59.9%
inhibition at 0.1 µM (BDQ 0.1 uM, […], frozen human mito, BDQ in DMSO, read-out: % inhibition): 34.3%
inhibition at 0.1 µM (BDQ 0.1 uM, […], frozen human mito, BDQ in DMSO, read-out: % inhibition, cyanide sensitive): 40.1%
cyanide sensitive ATP produced, nmol/min/mg [13]: 4.31 nmol/min/mg
cyanide sensitive ATP produced, pmol/min/mg [13]: 4313.60 pmol/min/mg
Cyanide sensitive ATP synthesis [14]: 8.1 nmol/min/mg and 6.1 nmol/min/mg and 5.4 nmol/min/mg and 6.3 nmol/min/mg and 7.4 nmol/min/mg
cyanide sensitive % activity [14]: 86.0% and 84.3% and 62.0% and 71.2% and 67.2%
% activity [15]: 69.7127%
% inhibition [15]: 30.2873%
ATP produced, nmol/min/mg [15]: 5.87 nmol/min/mg
ATP produced, pmol/min/mg [15]: 5869.95 pmol/min/mg
activity at 0.2 µM (BDQ 0.2 uM, […], frozen human mito, BDQ in DMSO, read-out: % activity): 69.7%
activity at 0.2 µM (BDQ 0.2 uM, […], frozen human mito, BDQ in DMSO, read-out: % activity, cyanide sensitive): 64.6%
inhibition at 0.2 µM (BDQ 0.2 uM, […], frozen human mito, BDQ in DMSO, read-out: % inhibition): 30.3%
inhibition at 0.2 µM (BDQ 0.2 uM, […], frozen human mito, BDQ in DMSO, read-out: % inhibition, cyanide sensitive): 35.4%
cyanide sensitive ATP produced, nmol/min/mg [16]: 4.65 nmol/min/mg
cyanide sensitive ATP produced, pmol/min/mg [16]: 4651.87 pmol/min/mg
Cyanide sensitive ATP synthesis [17]: 5.6 nmol/min/mg and 4.0 nmol/min/mg and 5.2 nmol/min/mg and 4.4 nmol/min/mg and 5.1 nmol/min/mg
cyanide sensitive % activity [17]: 55.4% and 59.9% and 49.8% and 46.9%
cyanide sensitive % inhibition [17]: 44.6% and 40.1% and 50.2% and 53.1%
activity at 0.2 µM (BDQ 0.2 uM, cyanide sensitive, human, read-out: cyanide sensitive % activity): 59.5%
inhibition at 0.2 µM (BDQ 0.2 uM, cyanide sensitive, human, read-out: cyanide sensitive % inhibition): 40.5%
% activity [18]: 36.7347%
% inhibition [18]: 63.2653%
ATP produced, nmol/min/mg [18]: 3.09 nmol/min/mg
ATP produced, pmol/min/mg [18]: 3093.14 pmol/min/mg
activity at 0.5 µM (BDQ 0.5 uM, […], frozen human mito, BDQ in DMSO, read-out: % activity): 36.7%
activity at 0.5 µM (BDQ 0.5 uM, […], frozen human mito, BDQ in DMSO, read-out: % activity, cyanide sensitive): 26%
inhibition at 0.5 µM (BDQ 0.5 uM, […], frozen human mito, BDQ in DMSO, read-out: % inhibition): 63.3%
inhibition at 0.5 µM (BDQ 0.5 uM, […], frozen human mito, BDQ in DMSO, read-out: % inhibition, cyanide sensitive): 74%
cyanide sensitive ATP produced, nmol/min/mg [19]: 1.88 nmol/min/mg
cyanide sensitive ATP produced, pmol/min/mg [19]: 1875.05 pmol/min/mg
